Data on 39 compounds can be found in US20260258050A1, “IMMUNOMODULATOR” (HITGEN INC., priority 2023, published 2026).

Each structure is given as a SMILES string.

Experiment [1] has as its target T1, Human IL-17A (Homo sapiens, UniProt Q16552).
T1 sequence (Q16552 20-155 limits assumed): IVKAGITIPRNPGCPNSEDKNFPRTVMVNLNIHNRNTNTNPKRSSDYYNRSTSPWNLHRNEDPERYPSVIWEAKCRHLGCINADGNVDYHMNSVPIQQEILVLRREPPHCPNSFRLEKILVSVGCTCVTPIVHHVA
Briefly: IL-17A enzyme-linked immunosorbent assay (competitive ELISA, IL-17A/IL-17Ra receptor-ligand binding). The arrangement: purchased Sino Biological Inc. 12047-H07B. The settings on record: human IL-17A coated plate, human IL-17Ra, read-out: IC50, inhibitory activity of compounds on human IL-17A. Put shortly:
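Competitive ELISA with plates coated with human IL-17A at 0.2 μg/ml, blocked with 5% skim milk. Compound pre-incubated with IL-17A 10 min at 25 °C, then 16 nM IL-17Ra stock added for 30 min. Bound receptor detected by anti-Fc HRP/TMB, A450. IC50 from variable-slope fit of blank-corrected residual activity.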

Experiment [2] concerns the target T1, Human IL-17A. The experiment in a line: Inhibition of human IL-17A protein-induced GROα/CXCL1 production in HT-29 cells. It is filed as cell-based. The arrangement: purchased R&D 317-ILB; host or cells: added exogenously to HT-29 cells. The settings on record: 30 ng/mL human IL-17A protein, 48 h, GROα in supernatant by ELISA kit, read-out: Inhibitory IC50 of compounds on HT-29 cell GROα/CXCL1. Put shortly: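 Compound dilutions were preincubated 1 h at 37 °C with 30 ng/mL human IL-17A, then added to HT-29 cells (5×10^4/well) for 48 h at 37 °C. GROα in supernatant quantified by ELISA; IC50 for inhibition of its production. Positive control: IL-17A antibody at […].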
For orientation: In an ELISA, binding on a coated surface is turned into a signal by an enzyme label.

With `Cc1[nH]nc2c1-c1cc(F)c(NC(=O)[C@@H](NC(=O)c3ccnn3C(C)C3CC3)C(C3CC3)C3CC3)cc1COCC2` (single isomer, unassigned) [compound 41a], the IC50 on Human IL-17A [1] is not above 50 nM; at Human IL-17A [2], not above 100 nM.
In the case of `[2H]C([2H])([2H])C([2H])([2H])n1nccc1C(=O)N[C@H](C(=O)Nc1cc2c(cc1F)-c1c(n[nH]c1C)CCOC2)C(C1CC1)C1CC1` [compound 90], the values for the IC50 on Human IL-17A [1] and at Human IL-17A [2] were not above 50 nM and 100 to 500 nM, respectively.
For `Cc1[nH]nc2c1-c1cnc(NC(=O)[C@@H](NC(=O)c3ccnn3C(C)CF)C(C3CC3)C3CC3)cc1COCC2` (single isomer, unassigned) [compound 189a], the IC50 was not above 50 nM on Human IL-17A [1] and not above 100 nM at Human IL-17A [2].
For `Cc1[nH]nc2c1-c1cnc(NC(=O)[C@@H](NC(=O)c3ccnn3CC(F)(F)F)C(C3CC3)C3CC3)cc1COCC2` [compound 236], in that order: not above 50 nM and 100 to 500 nM.
The matching figures for `Cc1[nH]nc2c1-c1cnc(NC(=O)[C@@H](NC(=O)c3ccnn3C(C)C)C(C3CC3)C3CC3)cc1CN(C(C)C)C(=O)C2` [compound 195]: not above 50 nM and not above 100 nM.
As for `CCn1nccc1C(=O)N[C@H](C(=O)Nc1cc2c(cc1F)-c1c(n[nH]c1C)CCOC2)[C@H]1CC[C@H](C)CC1` [compound 46], the IC50 is not above 50 nM on Human IL-17A [1] and 100 to 500 nM on Human IL-17A [2].
The matching figures for `Cc1[nH]nc2c1-c1cc(F)c(NC(=O)[C@@H](NC(=O)c3ccnn3CCCC(F)(F)F)C(C3CC3)C3CC3)cc1COCC2` [compound 84]: not above 50 nM and not above 100 nM.
The matching figures for `Cc1[nH]nc2c1-c1cnc(NC(=O)[C@@H](NC(=O)c3conc3C3CC3)C(C3CC3)C3CC3)cc1CN(C1CC1)CC2` [compound 215]: not above 50 nM and not above 100 nM.
For `Cc1[nH]nc2c1-c1cc(F)c(NC(=O)[C@@H](NC(=O)c3ccnn3C(C)C)C(C3CC3)C3CC3)cc1CN(C(C)C(F)(F)F)C(=O)C2` (mixture of isomers) [compound 173], in that order: not above 50 nM and not above 100 nM.
As to `Cc1[nH]nc2c1-c1cc(F)c(NC(=O)[C@@H](NC(=O)/C(F)=C\C(C)C)C(C3CC3)C3CC3)cc1COCC2` [compound 229], the IC50 at Human IL-17A [1] is not above 50 nM; on Human IL-17A [2], not above 100 nM.
For `Cc1[nH]nc2c1-c1cnc(NC(=O)[C@@H](NC(=O)c3ccnn3C(C)C)C(C3CC3)C3CC3)cc1CN(C1CC1)CC2` [compound 198], in that order: not above 50 nM and not above 100 nM.
For the compound `Cc1[nH]nc2c1-c1cc(F)c(NC(=O)[C@@H](NC(=O)/C(F)=C\C3CC3)C(C3CC3)C3CC3)cc1COCC2` [compound 230], the IC50 at Human IL-17A [1] is not above 50 nM; at Human IL-17A [2], not above 100 nM.
For `CCc1nocc1C(=O)N[C@H](C(=O)Nc1cc2c(cn1)-c1c(n[nH]c1C)CCN(C1CC1)C2)C(C1CC1)C1CC1` [compound 216], in that order: not above 50 nM and not above 100 nM.
The matching figures for `CCn1nccc1C(=O)N[C@H](C(=O)Nc1cc2c(cn1)-c1c(n[nH]c1C)CCN(C1CC1)C2)C(C1CC1)C1CC1` [compound 217]: not above 50 nM and not above 100 nM.
For `Cc1[nH]nc2c1-c1cc(F)c(NC(=O)[C@@H](NC(=O)c3ccnn3CCOCC(F)(F)F)C(C3CC3)C3CC3)cc1COCC2` [compound 104], in that order: not above 50 nM and not above 100 nM.
With `Cc1[nH]nc2c1-c1cnc(NC(=O)[C@@H](NC(=O)c3ccnn3C(C)C)C(C3CC3)C3CC3)cc1CN(C1CC(F)(F)C1)C(=O)C2` [compound 194], the IC50 on Human IL-17A [1] was not above 50 nM; on Human IL-17A [2] it was not above 100 nM.
For `Cc1[nH]nc2c1-c1cc(F)c(NC(=O)[C@@H](NC(=O)c3ccnn3C(C)C)C(C3CC3)C3CC3)cc1CN(C1CC(F)(F)C1)C(=O)C2` [compound 169], the values for the IC50 on Human IL-17A [1] and at Human IL-17A [2] were not above 50 nM and not above 100 nM, respectively.
On to `Cc1[nH]nc2c1-c1cc(F)c(NC(=O)[C@@H](NC(=O)c3ccnn3C(C)CF)C(C3CC3)C3CC3)cc1COCC2` (single isomer, unassigned) [compound 42a], for which the figures for the IC50 on Human IL-17A [1] and at Human IL-17A [2] were not above 50 nM and not above 100 nM, respectively.
For the compound `Cc1[nH]nc2c1-c1cnc(NC(=O)[C@@H](NC(=O)c3ccnn3C(C)C)C(C3CC3)C3CC3)cc1CN(Cc1ccccc1)C(=O)C2` [compound 182], the IC50 at Human IL-17A [1] was not above 50 nM; at Human IL-17A [2] it was 100 to 500 nM.
Take `Cc1[nH]nc2c1-c1cc(F)c(NC(=O)[C@@H](NC(=O)c3ccnn3CC3CC3)C(C3CC3)C3CC3)cc1COCC2` [compound 59]: the IC50 at Human IL-17A [1] is not above 50 nM; at Human IL-17A [2], 100 to 500 nM.
As for `Cc1[nH]nc2c1-c1cnc(NC(=O)[C@@H](NC(=O)c3ccnn3C(C)C)C(C3CC3)C3CC3)cc1CN(CC(C)(F)F)CC2` [compound 199], the IC50 at Human IL-17A [1] was not above 50 nM; at Human IL-17A [2] it was not above 100 nM.
The matching figures for `Cc1[nH]nc2c1-c1cnc(NC(=O)[C@@H](NC(=O)c3ccnn3C(C)CF)C(C3CC3)C3CC3)cc1COCC2` (single isomer, unassigned) [compound 189b]: not above 50 nM and 100 to 500 nM.
For `Cc1[nH]nc2c1-c1cc(F)c(NC(=O)[C@@H](NC(=O)c3ccnn3C)C(C3CC3)C3CC3)cc1COCC2` [compound 17], in that order: not above 50 nM and 100 to 500 nM.
For `[2H]C([2H])([2H])C([2H])(n1nccc1C(=O)N[C@H](C(=O)Nc1cc2c(cc1F)-c1c(n[nH]c1C)CCOC2)C(C1CC1)C1CC1)C([2H])([2H])[2H]` [compound 89], in that order: not above 50 nM and not above 100 nM.
As for `Cc1[nH]nc2c1-c1cc(F)c(NC(=O)[C@@H](NC(=O)c3ccnn3CCCF)C(C3CC3)C3CC3)cc1COCC2` [compound 86], the IC50 was not above 50 nM on Human IL-17A [1] and not above 100 nM at Human IL-17A [2].
The matching figures for `Cc1[nH]nc2c1-c1cc(F)c(NC(=O)[C@@H](NC(=O)c3ccnn3CCOC(C)C)C(C3CC3)C3CC3)cc1COCC2` [compound 98]: not above 50 nM and 100 to 500 nM.
As to `Cc1[nH]nc2c1-c1cc(F)c(NC(=O)[C@@H](NC(=O)c3ccnn3C(C)C)C(C3CC3)C3CC3)cc1CN(C(C)C(F)(F)F)C(=O)C2` (single isomer, unassigned) [compound 186a], the IC50 on Human IL-17A [1] is not above 50 nM; at Human IL-17A [2] it was not above 100 nM.
The matching figures for `Cc1[nH]nc2c1-c1cnc(NC(=O)[C@@H](NC(=O)c3ccnn3C(C)C)C(C3CC3)C3CC3)cc1CN(C1CCC1)CC2` [compound 201]: not above 50 nM and not above 100 nM.
The matching figures for `Cc1[nH]nc2c1-c1cc(F)c(NC(=O)[C@@H](NC(=O)c3ccnn3C(C)C)C(C3CC3)C3CC3)cc1CN(C1CC(F)(F)C1)CC2` [compound 176]: not above 50 nM and not above 100 nM.
The matching figures for `COCCCn1nccc1C(=O)N[C@H](C(=O)Nc1cc2c(cc1F)-c1c(n[nH]c1C)CCOC2)C(C1CC1)C1CC1` [compound 58]: not above 50 nM and 100 to 500 nM.
Turning to `Cc1[nH]nc2c1-c1cc(F)c(NC(=O)[C@@H](NC(=O)c3ccnn3C(C)C)C(C3CC3)C3CC3)cc1CN(C1CCC(F)(F)CC1)C(=O)C2` [compound 168], the IC50 on Human IL-17A [1] was not above 50 nM; at Human IL-17A [2] it was not above 100 nM.
The matching figures for `Cc1[nH]nc2c1-c1cnc(NC(=O)[C@@H](NC(=O)c3ccnn3C(C)C)C(C3CC3)C3CC3)cc1CN(C(C)C)CC2` [compound 200]: not above 50 nM and 100 to 500 nM.
For `Cc1[nH]nc2c1-c1cnc(NC(=O)[C@@H](NC(=O)c3ccnn3C3CC3)C(C3CC3)C3CC3)cc1COCC2` [compound 237], in that order: not above 50 nM and 100 to 500 nM.
Consider `Cc1[nH]nc2c1-c1cnc(NC(=O)[C@@H](NC(=O)c3ccnn3C(C)C3CC3)C(C3CC3)C3CC3)cc1COCC2` (single isomer, unassigned) [compound 188b], for which the IC50 on Human IL-17A [1] is not above 50 nM; on Human IL-17A [2] it was not above 100 nM.
The matching figures for `Cc1[nH]nc2c1-c1cnc(NC(=O)[C@@H](NC(=O)c3ccnn3C(C)C)C(C3CC3)C3CC3)cc1CN(C1CC1)C(=O)C2` [compound 191]: not above 50 nM and not above 100 nM.
For `Cc1[nH]nc2c1-c1cc(F)c(NC(=O)[C@@H](NC(=O)c3ccnn3C(C)C)C(C3CC3)C3CC3)cc1CN(CC1CC1)CC2` [compound 166], in that order: not above 50 nM and 100 to 500 nM.
The matching figures for `Cc1[nH]nc2c1-c1cnc(NC(=O)[C@@H](NC(=O)/C(F)=C\C3CC3)C(C3CC3)C3CC3)cc1COCC2` [compound 239]: not above 50 nM and not above 100 nM.
For the compound `Cc1[nH]nc2c1-c1cnc(NC(=O)[C@@H](NC(=O)c3ccnn3C(C)C3CC3)C(C3CC3)C3CC3)cc1COCC2` (single isomer, unassigned) [compound 188a], the IC50 at Human IL-17A [1] was not above 50 nM; on Human IL-17A [2] it was 100 to 500 nM.
In the case of `Cc1[nH]nc2c1-c1cc(F)c(NC(=O)[C@@H](NC(=O)c3ccnn3CCC(O)C(F)(F)F)C(C3CC3)C3CC3)cc1COCC2` (stereo partly drawn) [compound 81], the figures for the IC50 at Human IL-17A [1] and at Human IL-17A [2] were not above 50 nM and 100 to 500 nM, respectively.
